According to ChEMBL document CHEMBL1201862, “PubChem BioAssay data set” (2004):
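Cultured in 96-well plates, cells were exposed to test compound for 48 hours across five concentrations. At the GI50, growth is halved.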 Active and inactive are the calls of the source. Cut-off read from the data, not from the text of the source: active = GI50 up to about 1.1 µM and inactive = higher.

Columns and labels:
Assay in all cases: inhibition of tumour cell growth, NCI panel, 48 h
[1] = tested on: OVCAR-8
[2] = tested on: TK-10
[3] = tested on: MDA-MB-435
[4] = tested on: SK-MEL-28
[5] = tested on: UO-31
[6] = tested on: U-251
[7] = tested on: MCF7
[8] = tested on: M14
[9] = tested on: HOP-62
[10] = tested on: CAKI-1
[11] = tested on: LOX IMVI
[12] = tested on: SK-MEL-5
[13] = tested on: NCI-H226
[14] = tested on: MDA-MB-231
[15] = tested on: DU-145
[16] = tested on: SK-MEL-2
[17] = tested on: HCT-15
[18] = tested on: K562
[19] = tested on: MDA-N
[20] = tested on: HL-60
[21] = tested on: SF-295
[22] = tested on: MOLT-4
[23] = tested on: T47D
[24] = tested on: HT-29
[25] = tested on: COLO 205
[26] = tested on: SK-OV-3
[27] = tested on: NCI/ADR-RES
[28] = tested on: SNB-19
[29] = tested on: CCRF-CEM
[30] = tested on: KM12
[31] = tested on: Hs-578T
[32] = tested on: HCC 2998
[33] = tested on: Malme-3M
[34] = tested on: NCI-H522
[35] = tested on: IGROV-1
[36] = tested on: SF-268
[37] = tested on: SF-539
[38] = tested on: UACC-62
[39] = tested on: OVCAR-3
[40] = tested on: BT-549
[41] = tested on: NCI-H23
[42] = tested on: UACC-257
[43] = tested on: SR
[44] = tested on: RXF 393
[45] = tested on: NCI-H460
[46] = tested on: RPMI-8226
[47] = tested on: A549
[48] = tested on: 786-0
[49] = tested on: OVCAR-4
[50] = tested on: A498
[51] = tested on: SW-620
[52] = tested on: HOP-92
[53] = tested on: ACHN
[54] = tested on: SN12C
[55] = tested on: SNB-75
[56] = tested on: HCT-116
[57] = tested on: OVCAR-5
[58] = tested on: PC-3
[59] = tested on: EKVX

Measured: GI50

CC(=O)c1ccc(Nc2c3ccccc3nc3occc23)cc1
active: [1] 0.0174 µM | [2] 0.0371 µM | [3] < 0.01 µM | [4] 0.643 µM | [5] 0.0196 µM | [6] < 0.0124 µM | [7] < 0.01 µM | [8] < 0.01 µM | [9] 0.0127 µM | [10] < 0.01 µM | [11] < 0.0143 µM | [12] < 0.0219 µM | [13] 0.168 µM | [14] 0.0194 µM | [15] 0.0213 µM | [16] 0.0108 µM | [18] < 0.01 µM | [19] < 0.01 µM | [20] < 0.01 µM | [21] < 0.01 µM | [22] < 0.01 µM | [23] 0.011 µM | [24] < 0.01 µM | [25] < 0.01 µM | [26] 0.0402 µM | [27] < 0.01 µM | [28] < 0.0168 µM | [29] < 0.01 µM | [30] < 0.01 µM | [31] 0.0152 µM | [32] 0.0498 µM | [33] < 0.01 µM | [34] < 0.01 µM | [35] < 0.01 µM | [36] < 0.0105 µM | [37] < 0.01 µM | [38] < 0.01 µM | [39] < 0.01 µM | [41] 0.175 µM | [43] < 0.01 µM | [44] < 0.01 µM | [45] 0.01 µM | [46] < 0.01 µM | [47] 0.124 µM | [48] < 0.01 µM | [49] < 0.0246 µM | [51] < 0.01 µM | [53] < 0.01 µM | [54] 0.0172 µM | [55] 0.0109 µM | [56] < 0.01 µM | [57] 0.327 µM | [58] < 0.01 µM
inactive: [40] 2.12 µM | [42] 17.1 µM | [50] 2.32 µM | [52] 2.56 µM
< 0.01 µM: [17]

CC(C)[C@@H]1ON1C(C)c1ccccc1 (some centres undefined)
inactive: [1] > 100 µM | [2] > 100 µM | [3] > 100 µM | [4] > 100 µM | [5] > 100 µM | [6] > 100 µM | [7] 13.7 µM | [8] > 100 µM | [9] > 100 µM | [10] 17.1 µM | [11] > 100 µM | [12] > 100 µM | [13] > 100 µM | [14] > 100 µM | [15] > 100 µM | [18] > 100 µM | [19] > 100 µM | [20] 94.8 µM | [21] > 100 µM | [22] > 100 µM | [23] > 100 µM | [24] > 100 µM | [25] > 100 µM | [26] > 100 µM | [27] > 100 µM | [28] > 100 µM | [29] > 100 µM | [30] > 100 µM | [31] > 100 µM | [32] > 100 µM | [33] > 100 µM | [34] > 100 µM | [35] 70.6 µM | [36] > 100 µM | [37] > 100 µM | [38] > 100 µM | [59] > 100 µM | [39] > 100 µM | [40] > 100 µM | [41] > 100 µM | [42] > 100 µM | [43] > 100 µM | [44] > 100 µM | [45] > 100 µM | [46] > 100 µM | [47] > 100 µM | [48] > 100 µM | [49] > 100 µM | [50] > 100 µM | [51] > 100 µM | [52] > 100 µM | [53] > 100 µM | [54] > 100 µM | [55] > 100 µM | [56] > 100 µM | [57] > 100 µM | [58] > 100 µM
79.6 µM: [17]

CCO[C@H]1O[C@@H]2OC3(C)CCC4[C@H](C)CCC([C@H]1C)[C@]42OO3 (some centres undefined)
inactive: [2] > 95.5 µM | [3] 19.1 µM | [4] > 75.5 µM | [5] 15.4 µM | [6] 42.7 µM | [7] 19.4 µM | [8] 53.5 µM | [9] > 100 µM | [10] > 100 µM | [11] 24.2 µM | [12] 16 µM | [13] > 100 µM | [14] > 57 µM | [15] > 100 µM | [16] > 100 µM | [18] 15.9 µM | [19] 49.7 µM | [21] > 20.2 µM | [22] 7.91 µM | [23] 7.11 µM | [24] 61.2 µM | [25] 2.98 µM | [26] > 100 µM | [27] 23 µM | [28] > 100 µM | [29] 3.44 µM | [30] > 53.2 µM | [31] 29.9 µM | [32] 97.1 µM | [33] 42.3 µM | [34] 43.5 µM | [35] > 73.8 µM | [36] > 100 µM | [37] > 84.7 µM | [38] > 67.1 µM | [59] > 49.1 µM | [39] 15.5 µM | [40] > 100 µM | [41] 32.1 µM | [43] 10.3 µM | [44] > 100 µM | [45] > 55 µM | [46] 3.3 µM | [47] 40.8 µM | [48] 57.5 µM | [49] 25.8 µM | [50] > 100 µM | [51] > 44.9 µM | [52] > 100 µM | [53] 32.2 µM | [54] 68.2 µM | [55] > 74.1 µM | [56] 35.2 µM | [57] > 30.2 µM
23.9 µM: [17]
active: [1] 0.881 µM | [20] 0.159 µM | [58] 0.729 µM
